Consider 24 compounds from patent US10913745B2, “Octahydro-pyrrolo[3,4-c]-pyrrole derivatives and analogs thereof as autotaxin inhibitors” (Hoffmann-La Roche Inc., priority 2013, dated 2021).

For the test, the target named is ATX (human His-tagged) (Homo sapiens (Human), UniProt Q13822). Description: Human ATX enzyme inhibition assay (fluorescence quenching, MR121 substrate). It is filed as biochemical. Particulars: MR121 substrate 1 μM, ATX 30 nM final, 30° C. On the procedure:
Human ATX Enzyme Inhibition Assay
ATX inhibition was measured by a fluorescence quenching assay using a specifically labeled substrate analogue (MR121 substrate). To obtain this MR121 substrate, BOC and TBS protected 6-amino-hexanoic acid (R)-3-({2-[3-(2-{2-[2-(2-amino-ethoxy)-ethoxy]-ethoxy}-ethoxy)-propionylamino]-ethoxy}-hydroxy-phosphoryloxy)-2-hydroxy-propyl ester (Ferguson et al., Org Lett 2006, 8 (10), 2023) was labeled with MR121 fluorophore (CAS 185308-24-1, 1-(3-carboxypropyl)-11-ethyl-1,2,3,4,8,9,10,11-octahydro-dipyrido[3,2-b:2′,3′-i]phenoxazin-13-ium) on the free amine of the ethanolamine side and then, after deprotection, subsequently with tryptophan on the side of the aminohexanoic acid. Assay working solutions were made as follows: Assay buffer (50 mM Tris-HCl, 140 mM NaCl, 5 mM KCl, 1 mM CaCl2, 1 mM MgCl2, 0.01% Triton-X-100, pH 8.0; ATX solution: ATX (human His-tagged) stock solution (1.08 mg/mL in 20 mM bicine, pH 8.5, 0.15 M NaCl, 10% glycerol, 0.3% CHAPS, 0.02% NaN3), diluted to 1.4-2.5× final concentration in assay buffer; MR121 substrate solution: MR121 substrate stock solution (800 μM MR121 substrate in DMSO), diluted to 2-5× final concentration in assay buffer. Test compounds (10 mM stock in DMSO, 8 μL) were obtained in 384 well sample plates (Corning Costar #3655) and diluted with 8 μL DMSO. Row-wise serial dilutions were made by transferring 8 μL cpd solution to the next row up to row O. The compound and control solutions were mixed five times and 2 μL were transferred to 384 well assay plates (Corning Costar #3702). Then, 15 μL of 41.7 nM ATX solution was added (30 nM final concentration), mixed five times and then incubated for 15 minutes at 30° C. 10 μL of MR121 substrate solution was added (1 μM final concentration), mixed 30 times and then incubated for 15 minutes at 30° C.
`CC(C)(C)C(=O)Nc1cc(C#N)ccc1COC(=O)N1C[C@@H]2CN(C(=O)c3ccc(S(N)(=O)=O)nc3)C[C@H]2C1` [Example 1.23, (3aS,6aS)-5-(6-sulfamoyl-pyridine-3-carbonyl)-hexahydro-pyrrolo[3,4-c]pyrrole-2-carboxylic acid 4-cyano-2-(2,2-dimethyl-propionylamino)-benzyl ester] displayed an IC50 of 4 nM. This lies in the single-digit nanomolar range.
The value for `CC(C)(C)C(=O)Nc1cc(C#N)ccc1COC(=O)N1C[C@@H]2CN(C(=O)c3ccc(S(N)(=O)=O)cc3)C[C@H]2C1` [Example 1.24, (3aS,6aS)-5-(4-sulfamoyl-benzoyl)-hexahydro-pyrrolo[3,4-c]pyrrole-2-carboxylic acid 4-cyano-2-(2,2-dimethyl-propionylamino)-benzylester] was 12 nM; that for `CC(C)(C)C(=O)Nc1cc(C#N)ccc1COC(=O)N1C[C@@H]2CN(C(=O)c3ccc(S(N)(=O)=O)cc3F)C[C@H]2C1` [Example 1.25, (3aS,6aS)-5-(2-fluoro-4-sulfamoyl-benzoyl)-hexahydro-pyrrolo[3,4-c]pyrrole-2-carboxylic acid 4-cyano-2-(2,2-dimethyl-propionylamino)-benzyl ester] was 2 nM.
The value for `CC(C)(C)C(=O)Nc1cc(C#N)ccc1COC(=O)N1C[C@@H]2CN(C(=O)c3ccc(S(N)(=O)=O)cn3)C[C@H]2C1` [Example 1.26, (3aS,6aS)-5-(5-sulfamoyl-pyridine-2-carbonyl)-hexahydro-pyrrolo[3,4-c]pyrrole-2-carboxylic acid 4-cyano-2-(2,2-dimethyl-propionylamino)-benzyl ester] was 10 nM; that for `CC(=O)Nc1ccc(C(=O)N2C[C@H]3CN(C(=O)OCc4cc(Cl)cc(Cl)c4)C[C@H]3C2)cc1` [Example 2, (3aR,6aS)-3,5-Dichlorobenzyl 5-(4-acetamidobenzoyl)hexahydropyrrolo[3,4-c]pyrrole-2(1H)-carboxylate] was 342 nM.
For `CC(=O)Nc1ccc(C(=O)N2C[C@H]3CN(C(=O)OCc4cc(Cl)cc(Cl)c4)C[C@H]3C2)nc1` [Example 2.01, (3aR,6aS)-3,5-Dichlorobenzyl 5-(5-acetamidopicolinoyl)hexahydropyrrolo[3,4-c]pyrrole-2(1H)-carboxylate] the value was 1500 nM.
The compound `NS(=O)(=O)c1ccc(S(=O)(=O)N2C[C@H]3CN(C(=O)OCc4cc(Cl)cc(Cl)c4)C[C@H]3C2)cc1` [Example 3, (3aR,6aS)-3,5-Dichlorobenzyl 5-(4-sulfamoylphenylsulfonyl)hexahydropyrrolo[3,4-c]pyrrole-2(1H)-carboxylate] showed an IC50 of 31 nM. This IC50 is about 48-fold lower than that of the compound before.
The value for `O=C(OCc1cc(Cl)cc(Cl)c1)N1C[C@@H]2CN(C(=O)c3ccc(-c4nnn[nH]4)cc3)C[C@@H]2C1` [Example 4, (3aR,6aS)-3,5-Dichlorobenzyl 5-(4-(1H-tetrazol-5-yl)benzoyl)hexahydropyrrolo[3,4-c]pyrrole-2(1H)-carboxylate] was 573 nM.
`O=C(O)c1ccc(C(=O)N2C[C@H]3CN(C(=O)OCc4cc(Cl)cc(Cl)c4)C[C@H]3C2)cc1` [Example 5, 4-((3aR,6aS)-5-((3,5-Dichlorobenzyloxy)carbonyl)octahydropyrrolo[3,4-c]pyrrole-2-carbonyl)benzoic acid] had an IC50 of 1340 nM.
For `CS(=O)(=O)Nc1ccc(C(=O)N2C[C@H]3CN(C(=O)OCc4cc(Cl)cc(Cl)c4)C[C@H]3C2)nc1` [Example 6, (3aR,6aS)-3,5-Dichlorobenzyl 5-(5-(methylsulfonamido)picolinoyl)hexahydropyrrolo[3,4-c]pyrrole-2(1H)-carboxylate], 622 nM corresponded to half-maximal inhibition (IC50).
For `CS(=O)(=O)c1cc(Cl)cc(COC(=O)N2C[C@@H]3CN(C(=O)c4ccc(S(N)(=O)=O)cc4)C[C@H]3C2)c1` [Example 7, (3aS,6aS)-5-(4-Sulfamoyl-benzoyl)-hexahydro-pyrrolo[3,4-c]pyrrole-2-carboxylic acid 3-chloro-5-methanesulfonyl-benzyl ester] the value was 14.5 nM; for `NS(=O)(=O)c1ccc(C(=O)N2C[C@H]3CN(C(=O)OCc4ccc(OC(F)(F)F)cc4F)C[C@H]3C2)cc1` [Example 7.01, (3aR,6aS)-5-(4-sulfamoyl-benzoyl)-hexahydro-pyrrolo[3,4-c]pyrrole-2-carboxylic acid 2-fluoro-4-trifluoromethoxy-benzyl ester], 1 nM; for `NS(=O)(=O)c1ccc(C(=O)N2C[C@H]3CN(C(=O)OCc4ccc(OC(F)(F)F)cc4)C[C@H]3C2)cc1` [Example 7.02, (3aR,6aS)-5-(4-sulfamoyl-benzoyl)-hexahydro-pyrrolo[3,4-c]pyrrole-2-carboxylic acid 4-trifluoromethoxy-benzyl ester], 3 nM.
As to `NS(=O)(=O)c1ccc(C(=O)N2C[C@H]3CN(C(=O)OCc4ccc(OC(F)(F)F)cc4)C[C@@H]3C2)cc1` [Example 7.03, (3aS,6aS)-5-(4-sulfamoyl-benzoyl)-hexahydro-pyrrolo[3,4-c]pyrrole-2-carboxylic acid 4-trifluoromethoxy-benzyl ester], half-maximal inhibition (IC50) was put at 4 nM.
Consider `NS(=O)(=O)c1ccc(C(=O)N2C[C@H]3CN(C(=O)CCc4ccc(OC(F)(F)F)cc4)C[C@@H]3C2)cc1` [Example 8, 4-{(3aR,6aR)-5-[3-(4-Trifluoromethoxy-phenyl)-propionyl]-hexahydro-pyrrolo[3,4-c]pyrrole-2-carbonyl}-benzenesulfonamide], for which inhibition was half-maximal at 8.5 nM (IC50). This IC50 lies about 2.1-fold higher than the previous one.
For `NS(=O)(=O)c1ccc(C(=O)N2C[C@H]3CN(C(=O)/C=C/c4ccc(OC(F)(F)F)cc4)C[C@@H]3C2)cc1` [Example 8.01, 4-{(3aR,6aR)-5-[(E)-3-(4-trifluoromethoxy-phenyl)-acryloyl]-hexahydro-pyrrolo[3,4-c]pyrrole-2-carbonyl}-benzenesulfonamide] the value was 7.5 nM; for `CC(C)Oc1cc(C(=O)N2C[C@H]3CN(C(=O)c4ccc(S(N)(=O)=O)cc4)C[C@H]3C2)cc2ccccc12` [Example 8.02, 4-[(3aR,6aS)-5-(4-isopropoxy-naphthalene-2-carbonyl)-hexahydro-pyrrolo[3,4-c]pyrrole-2-carbonyl]-benzenesulfonamide], 14 nM; for `NS(=O)(=O)c1ccc(C(=O)N2C[C@@H]3CN(C(=O)c4cc5ccccc5c(OCC(F)(F)F)n4)C[C@@H]3C2)cc1` [Example 8.03, 4-{(3aR,6aS)-5-[1-(2,2,2-trifluoro-ethoxy)-isoquinoline-3-carbonyl]-hexahydro-pyrrolo[3,4-c]pyrrole-2-carbonyl}-benzenesulfonamide], 5.5 nM.
The value for `Cn1c(C(=O)N2C[C@H]3CN(C(=O)c4ccc(S(N)(=O)=O)cc4)C[C@H]3C2)cc2cc(OC(F)(F)F)ccc21` [Example 8.04, 4-[(3aR,6aS)-5-(1-Methyl-5-trifluoromethoxy-1H-indole-2-carbonyl)-hexahydro-pyrrolo[3,4-c]pyrrole-2-carbonyl]-benzenesulfonamide] was 166 nM; that for `CC(C)Oc1cc(C(=O)N2C[C@H]3CN(C(=O)c4ccc(S(N)(=O)=O)cc4)C[C@H]3C2)nc2ccccc12` [Example 8.05, 4-[(3aR,6aS)-5-(4-Isopropoxy-quinoline-2-carbonyl)-hexahydro-pyrrolo[3,4-c]pyrrole-2-carbonyl]-benzenesulfonamide] was 93 nM.
For `NS(=O)(=O)c1ccc(C(=O)N2C[C@H]3CN(C(=O)c4ccc(-c5ccc(Cl)cc5)cc4)C[C@H]3C2)cc1` [Example 8.06, 4-[(3 aS,6aR)-5-(4′-chloro-biphenyl-4-carbonyl)-hexahydro-pyrrolo[3,4-c]pyrrole-2-carbonyl]-benzenesulfonamide], the IC50 was found to be 3 nM.
The value for `NS(=O)(=O)c1ccc(C(=O)N2C[C@H]3CN(C(=O)CCc4ccc(OC(F)(F)F)cc4F)C[C@H]3C2)cc1` [Example 8.07, 4-{(3aS,6aR)-5-[3-(2-fluoro-4-trifluoromethoxy-phenyl)-propionyl]-hexahydro-pyrrolo[3,4-c]pyrrole-2-carbonyl}-benzenesulfonamide] was 1 nM.
The value for `NS(=O)(=O)c1ccc(C(=O)N2C[C@H]3CN(C(=O)CCc4ccc(OC(F)(F)F)cc4)C[C@H]3C2)cc1` [Example 8.08, 4-{(3aS,6aR)-5-[3-(4-trifluoromethoxy-phenyl)-propionyl]-hexahydro-pyrrolo[3,4-c]pyrrole-2-carbonyl}-benzenesulfonamide] was 1.5 nM.
`NS(=O)(=O)c1ccc(C(=O)N2C[C@H]3CN(C(=O)CCc4ccc(OC(F)(F)F)cc4F)C[C@@H]3C2)cc1` [Example 8.09, 4-((3 aR,6aR)-5-(3-(2-fluoro-4-(trifluoromethoxy)phenyl)propanoyl)octahydropyrrolo[3,4-c]pyrrole-2-carbonyl)benzenesulfonamide] displayed a 50% inhibitory concentration (IC50) of 1 nM.

As usually defined, the IC50 is the concentration that inhibits the measured activity by half. The low end stands for greater potency in that assay, the high end for weaker potency in that assay.
